According to patent US20230105982A1, “INSULIN-INCRETIN CONJUGATES” (Merck Sharp & Dohme Corp., priority 2021, published 2023):

How the values were obtained:
Assay type in all cases: cell-based
human GCGR = target: T1, human GCGR (Homo sapiens, UniProt P47871); assay: cAMP activity assay, cells expressing human GCGR; conditions: for GCGR/GLP1R ratio: ratio of hGCGR EC50 to hGLP1R EC50, Table 5
T1 construct: expressed in transfected cells
Procedure: (§1) Activity of the incretin peptides or the conjugates at the Glucagon receptor (GCGR) and GLP-1 receptor (GLP1R) may be measured in a cAMP activity assay as follows.
(§2) Peptides are dissolved in 100% DMSO and serially diluted to generate 10 point titrations. The peptide solutions are then transferred into 384-well assay plates (150 nL/well). Assay ready frozen cells expressing human GLP1R or human GCGR are suspended in growth media consisting of DMEM medium (GIBCO), 10% FBS (GIBCO), 1×NEAA(GIBCO), 1×P/S (GIBCO), 10 μg/mL Blasticidin (GIBCO) and 200 μg/mL Hygromycin (GIBCO). […] The cell suspensions (15 μL) are then added to the assay plates containing the peptide solutions (30,000 cells/well for human GCGR; 10,000 cells/well for human GLP1R). The cells are incubated for one hour at room temperature in the dark.
(§3) Production of cAMP may be determined using HitHunter™ cAMPXS kits (DiscoverX) following the manufacturer's protocol. The plates are incubated for overnight at room temperature in the dark. Luminescence may be measured using an EnVision Multilabel plate reader (Perkin Elmer). Native GLP-1 and Glucagon (Bachem) may be used as control peptides. EC50 values may be calculated using uses a 4 parameter logistic fit based on the Levenberg-Marquardt algorithm.

human GLP1R = human GLP1R (Homo sapiens, UniProt P43220); assay: cAMP activity assay, cells expressing human GLP1R; conditions: hGLP1R EC50
Procedure: as §1, §2, §3

minipig IR = assay: Insulin Receptor Phosphorylation (pAkt) Assay, CHO cells overexpressing minipig IR; conditions: Table 7, read-out: Insulin Receptor pAK Assay EC50 Minipig

T1 sequence (P47871 26-477): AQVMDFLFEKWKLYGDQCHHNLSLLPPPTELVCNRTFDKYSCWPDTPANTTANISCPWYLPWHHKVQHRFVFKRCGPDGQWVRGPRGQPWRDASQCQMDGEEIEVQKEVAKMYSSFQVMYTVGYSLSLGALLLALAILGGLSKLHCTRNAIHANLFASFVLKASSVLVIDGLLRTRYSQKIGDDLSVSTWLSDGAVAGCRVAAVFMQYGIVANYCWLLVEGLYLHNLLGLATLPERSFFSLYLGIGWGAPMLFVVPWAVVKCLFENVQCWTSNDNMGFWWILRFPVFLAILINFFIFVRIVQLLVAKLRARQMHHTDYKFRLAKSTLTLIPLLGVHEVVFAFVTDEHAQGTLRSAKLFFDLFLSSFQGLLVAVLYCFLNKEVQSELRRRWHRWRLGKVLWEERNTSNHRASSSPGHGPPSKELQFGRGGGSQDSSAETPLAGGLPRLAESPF
Sequence of human GLP1R (P43220 24-463): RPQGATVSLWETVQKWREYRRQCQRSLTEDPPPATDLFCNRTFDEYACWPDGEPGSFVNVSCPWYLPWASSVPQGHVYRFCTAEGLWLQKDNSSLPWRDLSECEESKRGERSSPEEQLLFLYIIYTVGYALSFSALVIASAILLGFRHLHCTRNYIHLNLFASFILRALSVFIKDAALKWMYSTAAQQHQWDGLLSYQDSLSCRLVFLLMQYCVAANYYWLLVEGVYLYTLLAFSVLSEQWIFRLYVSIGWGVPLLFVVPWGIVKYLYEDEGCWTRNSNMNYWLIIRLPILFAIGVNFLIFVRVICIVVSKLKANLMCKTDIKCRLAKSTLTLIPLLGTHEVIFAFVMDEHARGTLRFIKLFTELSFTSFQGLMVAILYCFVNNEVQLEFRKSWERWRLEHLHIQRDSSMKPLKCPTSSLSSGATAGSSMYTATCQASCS

Row | Compound | GCGR/GLP1R ratio (human GCGR) | EC50 (human GLP1R) | EC50 (human GCGR; hGCGR_EC50) | EC50 (minipig IR)
1 | CCCCCCCCCCCCCCCC(=O)N[C@@H](CCC(=O)N[C@@H](CCC(=O)NCCCC[C@H](NC(=O)[C@H](CC(=O)O)NC(=O)[C@H](CO)NC(=O)[C@@H](NC(=O)[C@H](Cc1ccccc1)NC(=O)[C@@H](NC(=O)CNC(=O)[C@H](CCC(N)=O)NC(=O)[C@@H](CO)NC(=O)[C@@H](N)Cc1c[nH]cn1)[C@@H](C)O)[C@@H](C)O)C(=O)N[C@@H](CO)C(=O)N[C@@H](CCCCN)C(=O)N[C@@H](Cc1ccc(O)cc1)C(=O)N[C@@H](CC(C)C)C(=O)N[C@@H](CC(=O)O)C(=O)NC(C)(C)C(=O)N[C@@H](CCCNC(=N)N)C(=O)N[C@@H](C)C(=O)N[C@@H](C)C(=O)N[C@@H](CCC(N)=O)C(=O)N[C@@H](CC(=O)O)C(=O)N[C@@H](Cc1ccccc1)C(=O)N[C@H](C(=O)N[C@@H](CCCCN=[N+]=[N-])C(=O)N[C@@H](Cc1c[nH]c2ccccc12)C(=O)N[C@@H](CC(C)C)C(=O)N[C@@H](CC(C)C)C(=O)N[C@@H](CC(=O)O)C(=O)N[C@H](C(N)=O)[C@@H](C)O)C(C)C)C(=O)O)C(=O)O [PEP7] | 0.2 |  |  | 
2 | CCCCCCCCCCCCCCCC(=O)N[C@@H](CCC(=O)N[C@@H](CCC(=O)NCCCC[C@H](NC(=O)[C@H](CC(=O)O)NC(=O)[C@H](CO)NC(=O)[C@@H](NC(=O)[C@H](Cc1ccccc1)NC(=O)[C@@H](NC(=O)CNC(=O)[C@H](CCC(N)=O)NC(=O)[C@@H](CO)NC(=O)[C@@H](N)Cc1c[nH]cn1)[C@@H](C)O)[C@@H](C)O)C(=O)N[C@@H](CO)C(=O)N[C@@H](CCCCN)C(=O)N[C@@H](Cc1ccc(O)cc1)C(=O)N[C@@H](CC(C)C)C(=O)N[C@@H](CC(=O)O)C(=O)N[C@@H](CCC(=O)O)C(=O)N[C@@H](CCCNC(=N)N)C(=O)N[C@@H](C)C(=O)N[C@@H](C)C(=O)N[C@@H](CCC(N)=O)C(=O)N[C@@H](CC(=O)O)C(=O)N[C@@H](Cc1ccccc1)C(=O)N[C@H](C(=O)N[C@@H](CCCCNC(=O)COCCOCCNC(=O)COCCOCCNC(=O)CCCCN=[N+]=[N-])C(=O)N[C@@H](Cc1c[nH]c2ccccc12)C(=O)N[C@@H](CC(C)C)C(=O)N[C@@H](CC(C)C)C(=O)N[C@@H](CC(=O)O)C(=O)N[C@H](C(N)=O)[C@@H](C)O)C(C)C)C(=O)O)C(=O)O [PEP15] | 0.7 | 0.03 nM | 0.02 nM | 
3 | Insulin levemir [IL] |  |  |  | 0.5 nM
